The target in the first assay is T1, Polyunsaturated fatty acid 5-lipoxygenase (Rattus norvegicus, UniProt P12527).
T1 sequence (P12527 whole entry): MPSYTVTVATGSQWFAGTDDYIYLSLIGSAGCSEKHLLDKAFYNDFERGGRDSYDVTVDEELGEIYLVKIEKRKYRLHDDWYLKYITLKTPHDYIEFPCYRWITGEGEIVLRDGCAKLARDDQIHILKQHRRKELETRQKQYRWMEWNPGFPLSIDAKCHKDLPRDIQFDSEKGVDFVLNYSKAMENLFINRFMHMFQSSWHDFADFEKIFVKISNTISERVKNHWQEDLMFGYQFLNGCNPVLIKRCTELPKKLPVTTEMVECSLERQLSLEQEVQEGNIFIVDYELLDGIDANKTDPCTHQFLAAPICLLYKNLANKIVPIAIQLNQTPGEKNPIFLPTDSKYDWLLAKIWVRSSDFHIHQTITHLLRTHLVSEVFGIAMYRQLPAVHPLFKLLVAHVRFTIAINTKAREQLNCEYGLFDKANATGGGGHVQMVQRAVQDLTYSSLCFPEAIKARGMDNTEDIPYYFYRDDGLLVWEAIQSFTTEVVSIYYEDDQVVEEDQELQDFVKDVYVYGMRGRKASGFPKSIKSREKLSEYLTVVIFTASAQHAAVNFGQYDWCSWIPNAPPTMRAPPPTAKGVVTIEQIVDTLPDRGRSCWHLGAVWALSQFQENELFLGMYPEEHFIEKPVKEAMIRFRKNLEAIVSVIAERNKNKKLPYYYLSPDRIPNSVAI
Nature of the assay: Tested for inhibition of 5-Lipoxygenase (ARBL) in calcium-stimulated rat basophilic leukemia cells(RBL-1). The class given is cell-based.
Settings: not given
As usually defined, the IC50 is the concentration that inhibits the measured activity by half. Turning to `COc1ccc2c(c1)c(CN(O)C(C)=O)c(C)n2C(=O)c1ccc(Cl)cc1`, the IC50 was determined as 1.4 µM. Still for that read-out and setting: the value for `COc1ccc2c(c1)c(CC(=O)O)c(C)n2C(=O)c1ccc(Cl)cc1` [INDOMETHACIN] was greater than 100 µM.

For `COc1ccc2c(c1)c(CN(O)C(N)=O)c(C)n2C(=O)c1ccc(Cl)cc1`, the IC50 is 0.34 µM.

As for `COc1ccc2c(c1)c(C(C)N(O)C(N)=O)c(C)n2C(=O)c1ccc(Cl)cc1` (configuration not stated), the IC50 came out at 1.4 µM. Still for that read-out and setting: the value for `CNC(=S)N(O)C(C)c1c(C)n(C(=O)c2ccc(Cl)cc2)c2ccc(OC)cc12` (configuration not stated) was 0.57 µM; that for `COc1ccc2c(c1)c(C(C)N(O)C(C)=O)c(C)n2C(=O)c1ccc(Cl)cc1` (configuration not stated) was 0.83 µM.

The target of a further assay is T2, Cyclooxygenase (Rattus norvegicus, UniProt P35355+Q63921).
T2 sequence (P35355 whole entry): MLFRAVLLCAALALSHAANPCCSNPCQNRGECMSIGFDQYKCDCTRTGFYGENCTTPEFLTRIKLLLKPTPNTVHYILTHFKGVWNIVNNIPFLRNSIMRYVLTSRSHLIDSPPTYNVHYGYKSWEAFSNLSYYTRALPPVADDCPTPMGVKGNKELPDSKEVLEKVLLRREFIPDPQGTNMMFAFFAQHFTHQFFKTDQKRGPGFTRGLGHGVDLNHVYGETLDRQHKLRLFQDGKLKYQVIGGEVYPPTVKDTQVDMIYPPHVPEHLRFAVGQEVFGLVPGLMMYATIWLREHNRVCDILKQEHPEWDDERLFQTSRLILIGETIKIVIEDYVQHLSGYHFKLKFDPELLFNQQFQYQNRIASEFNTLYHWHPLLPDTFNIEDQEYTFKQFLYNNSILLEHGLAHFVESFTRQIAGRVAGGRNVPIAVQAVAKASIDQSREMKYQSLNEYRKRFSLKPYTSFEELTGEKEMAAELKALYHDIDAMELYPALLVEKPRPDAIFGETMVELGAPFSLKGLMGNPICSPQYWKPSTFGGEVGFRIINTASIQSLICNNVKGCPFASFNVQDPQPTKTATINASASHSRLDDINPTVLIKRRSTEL
T2 sequence (Q63921 whole entry): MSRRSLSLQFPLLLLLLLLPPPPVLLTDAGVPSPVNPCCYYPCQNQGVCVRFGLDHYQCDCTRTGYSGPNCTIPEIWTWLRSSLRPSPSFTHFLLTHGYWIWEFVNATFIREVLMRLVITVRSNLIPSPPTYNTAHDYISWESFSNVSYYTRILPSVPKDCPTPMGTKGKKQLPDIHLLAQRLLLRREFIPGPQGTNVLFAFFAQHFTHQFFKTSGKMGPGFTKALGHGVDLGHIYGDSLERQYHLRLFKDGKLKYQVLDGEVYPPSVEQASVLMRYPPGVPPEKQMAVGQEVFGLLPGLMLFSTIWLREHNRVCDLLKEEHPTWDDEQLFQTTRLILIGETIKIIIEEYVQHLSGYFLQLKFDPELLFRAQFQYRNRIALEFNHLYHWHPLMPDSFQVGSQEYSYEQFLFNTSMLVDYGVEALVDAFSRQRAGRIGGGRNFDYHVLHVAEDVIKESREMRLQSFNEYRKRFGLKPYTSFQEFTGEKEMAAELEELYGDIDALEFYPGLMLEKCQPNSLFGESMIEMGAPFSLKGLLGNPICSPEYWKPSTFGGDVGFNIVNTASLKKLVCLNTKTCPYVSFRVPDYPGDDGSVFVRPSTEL
The following applies: rbl-1.
Description: Tested for inhibition of cyclooxygenase (ARBC) in calcium-stimulated rat basophilic leukemia cells(RBL-1)
In turn, `CNC(=S)N(O)Cc1c(C)n(C(=O)c2ccc(Cl)cc2)c2ccc(OC)cc12` gave an IC50 of 7.1 µM. The molecule `COc1ccc2c(c1)c(CN(O)C(C)=O)c(C)n2C(=O)c1ccc(Cl)cc1` had a half-maximal inhibitory concentration (IC50) of 15 µM. For `COc1ccc2c(c1)c(CN(O)C(N)=O)c(C)n2C(=O)c1ccc(Cl)cc1`, the concentration for half-maximal inhibition (IC50) was greater than 20 µM.

As to `COc1ccc2c(c1)c(C(C)N(O)C(N)=O)c(C)n2C(=O)c1ccc(Cl)cc1` (configuration not stated), the IC50 came out at 0.89 µM. `CNC(=S)N(O)C(C)c1c(C)n(C(=O)c2ccc(Cl)cc2)c2ccc(OC)cc12` (configuration not stated) had a 50% inhibitory concentration (IC50) of 7 µM. On the same count and under the same terms, the value for `COc1ccc2c(c1)c(C(C)N(O)C(C)=O)c(C)n2C(=O)c1ccc(Cl)cc1` (configuration not stated) was 2.4 µM.

These data come from ChEMBL document CHEMBL1126384, “Synthesis of reversed hydroxamic acids of indomethacin: dual inhibitors of cyclooxygenase and 5-lipoxygenase” (Bioorg Med Chem Lett, 1992).
